The results in this text go back to paper PMC8381248 (Frontiers in Pharmacology, 2021).

Converted amounts (≈) assume the structure as drawn.

Data set [1] can be described thus: Metabolic stability in rat liver microsomes. The note with it: for T1/2: 0.5 mg/ml microsomal protein, n = 2. Here is the method:
Then, this incubation plate containing mixed solution and NADPH regeneration system was agitated on a plate shaker at 100 rpm and pre-incubated at 37°C for 5 min. Subsequently, 300 μL of precooled quenching solution was added to each well of another deep-well plate (quench plate), which was cooled on ice. The solution in the incubation plate was transferred into the well of the quench plate as the samples in 0 min before it was mixed with another 20 µL of NADPH regeneration solution in the wells.
The incubation plate was incubated at 37°C for 0, 10, 30, and 90 min. At each time point, 100 μL of the supernatant in the incubation plate was removed from each well, quenched immediately, transferred to the wells of the ice-cold quench plate, and vortexed for 5 min. Additionally, an equal volume of pre-warmed fresh regeneration solution was added to the incubation plate for compensation after every withdrawal. […] Each test was operated in duplicate. The determination conditions of LC-MS/MS are shown in Support Materials (Supplementary Table S4).
The in vitro T1/2 was determined by converting the analyte/IS peak area ratios to percentage of drug remaining using the initial peak (t = 0 min) area ratio values as 100%.
(Liver microsomes are vesicles of endoplasmic reticulum, rich in cytochrome P450 enzymes.)

Data set [2] concerns PE-constricted aortic rings. Description: Vasorelaxant effects on isolated PE-constricted aortic rings. Set-up: species or system SD rats. The note with it: 10^–6 M PE, n = 6. On the procedure:
SD rats were anesthetized by exposure to ether, and the thoracic aorta was removed and immersed in Krebs-Henseleit (K-H) buffer ([Lee et al., 2013]) at 4°C. The connective tissues and fats around the aorta were carefully removed under the microscopes, and the blood was flushed. The aorta ring was cut into four sections approximately 3 mm long and suspended in organ chambers containing K-H buffer. The endothelium was also removed by gently rubbing the lumen of the vessel with a cotton swab. The aortic rings were placed in a 5 ml organ chambers of DMT multiwire myograph system (620M, Danish Myo Technology, Denmark) and were filled with K-H buffer aerated with 95% O2 and 5% CO2 at 37°C. The aortic rings were mounted on hooks connected to a tension transducer and a displacement device.
The initial vessel tension was slowly adjusted to 15 mN and maintained balanced for 60 min. The buffer was renewed once every 15 min. After equilibration, the vessel viability was pre-constricted by exposing the aortic rings to 60 mM KCl for 10 min ([Ding et al., 2019]). Then, the K-H buffer was continuously renewed to elute and restore the initial tension of the vascular ring to assay the vascular activity. The pre-treated operation was repeated two times, where the constriction amplitude after each KCl stimulation to reach the previous constriction amplitude was taken as the criterion, before the experiment continued. Subsequently, 10^–6 M PE was added to contract the blood vessel. After the constriction was stable, different concentrations of Ach (10^−9–10^–5 M) were used to dilate the vessels. Then, the vasorelaxation degree could be calculated with different Ach concentrations, as the following equation: Vasorelaxation degree (%)=Maxium constriction tension induced by PE−Minium diastolic tension induced by Ach/Maxium constriction tension induced by PE−Resting tension×100% (10) When the vasorelaxation degree corresponding to Ach (10^–5 M) is greater than 80%, the vascular endothelium is considered intact and functional. The endothelium is considered to be removed with a vasorelaxation degree of less than 20% ([Lee et al., 2013]). Endothelium-intact and endothelium-denuded aortic rings from the same aorta were tested.
After equilibration, the endothelium-intact and the endothelium-denuded aortic rings were pre-constricted with 10^–6 M PE in the K-H buffer system.
After equilibration, the endothelium-intact aortic rings were pre-constricted with 10^–6 M PE in the K-H buffer system. […] Then, the corresponding vasoconstrictive responses were examined and recorded.
In the vasorelaxant effects investigations, all the data are presented as mean ± SEM. Statistical analysis was performed using two-way ANOVA followed by Fisher’s least significant difference (LSD) test. Values at p < 0.05 were considered statistically significant.

A short description of data set [3]: Kinetic solubility test in PBS. The class given is physicochemical. The following applies: phosphate-buffer saline (PBS), aqueous buffer, kinetic from dmso stock; PBS (100 mM, pH 7.4). Here is the method: Internal standard (IS) solutions (propranolol and tolbutamide) were dissolved by acetonitrile (50 ng/ml propranolol + 200 ng/ml tolbutamide).
The sample solutions were analyzed using LC-MS/MS. All the samples (test samples and references) for detection were prepared in duplicate. The conditions for LC-MS/MS are shown in Support Materials (Supplementary Table S1).

A further data set in a line: in vitro. The note with it: PAMPA. On the procedure:
Verapamil and digoxin solutions, used as reference, prepared in the same manner as the test drugs. Tolbutamide dissolved with acetonitrile (200 ng/ml) was used as IS.
The resultant supernatants were determined by LC-MS/MS. The specific assay conditions are shown in Support Materials (Supplementary Table S2).
In general terms: In PAMPA a lipid-coated filter parts donor from acceptor wells.

The compound `COc1ccc2[nH]c([S+]([O-])Cc3ncc(C)c(OC)c3C)nc2c1` (stereo not drawn) [Omeprazole, omeprazole, reference compound] yielded a T1/2 in data set [1] (RLM with NADPH) of 15.6 min.
Take Pinoresinol [PINL]: the “vasorelaxant effect on PE-constricted aortic rings” value in data set [2] (increasing concentration 25–200 μM) is reported as “concentration-dependent vasorelaxation”. For the same compound, in data set [2] (PINL difference at 50–100 μM), the “vasorelaxation degree, endothelium-denuded versus endothelium-intact group” value is listed as “significantly lower”. In data set [2] (endothelium-intact rings, PINL vs PDG at 50 μM, combination vs single at 25, 50 and 100 μM), the “vasorelaxant response compared between groups” value is recorded as “significantly better than in the PDG group”.
One may read the microsomal CLint as the capacity of the preparation to metabolise the compound, expressed as a volume cleared per time. A higher microsomal CLint goes with rapid turnover. As for `COc1ccc2c(c1)[C@]13CCCC[C@@H]1[C@H](C2)N(C)CC3` [Dextromethorphan, dextromethorphan, reference compound], the T1/2 in data set [1] (HLM with NADPH) came to 63.8 min. In data set [1] (human, microsomes), this compound registered a microsomal CLint of 21.7 µL/min/mg.
In general, solubility (kinetic) refers to the concentration staying in solution when a stock, usually in DMSO, is diluted into the medium. `CC(=O)N1CCN(c2ccc(OCC3COC(Cn4ccnc4)(c4ccc(Cl)cc4Cl)O3)cc2)CC1` (stereo not drawn) [ketoconazole, reference compound]: in data set [3], the kinetic solubility came to 38.9 ± 1.54 µg/mL (≈ 73.2 µM).
On to `COC(=O)C1=C(C)NC(C)=C(C(=O)OCCN(C)Cc2ccccc2)C1c1cccc([N+](=O)[O-])c1` (stereo not drawn) [nicardipine, reference compound], for which the kinetic solubility in data set [3] came out at 9.94 ± 0.05 µg/mL (≈ 20.7 µM).
What is called Papp is a coefficient for how fast a substance crosses the barrier. The low end stands for poor permeation, the high end for ready permeation. `C[C@H]1O[C@@H](O[C@H]2[C@@H](O)C[C@H](O[C@H]3[C@@H](O)C[C@H](O[C@H]4CC[C@@]5(C)[C@H](CC[C@@H]6[C@@H]5C[C@@H](O)[C@]5(C)[C@@H](C7=CC(=O)OC7)CC[C@]65O)C4)O[C@@H]3C)O[C@@H]2C)C[C@H](O)[C@@H]1O` [Digoxin, digoxin, reference compound] returned a Papp at 18000 s in the data set “in vitro” of 0.589 ×10⁻⁶ cm/s.
